# From patent US20140170768A1, “METHOD FOR MONITORING AND ASSESSING PITUITARY FUNCTION” (priority 2012, published 2014)
# Tests used:
# Format in all cases: in vivo, human
# [1] = tested on: person with recurrent Cushing's disease; test: Case Two: ACTH and cortisol before and after a single mifepristone dose in recurrent Cushing's disease; settings: 8 AM the morning following a 300 mg dose
# Description: A person with recurrent Cushing's disease following pituitary surgery received a dose of 300 mg mifepristone. ACTH and cortisol were measured at 8 AM prior to and at 8 AM the morning following the dose of mifepristone.
# [2] = tested on: patients with Cushing's syndrome secondary to ectopic ACTH secretion; test: Case One: ACTH and cortisol response to mifepristone in Cushing's syndrome secondary to ectopic ACTH secretion
# Description: (§1) Hypercortisolism can result from excessive pituitary ACTH secretion, ectopic ACTH synthesis, overproduction of cortisol by an adrenal tumor, and rarely by extra-hypothalamic CRH production. Identifying the cause of excess cortisol production relies upon the sensitivity of pituitary-dependent ACTH secretion to inhibition by pharmacologic doses of dexamethasone. Mifepristone is a glucocorticoid receptor antagonist approved for the treatment of hyperglycemia in patients with Cushing's disease. It was hypothesized that mifepristone, by blocking glucocorticoid receptors, could be used to identify patients with pituitary-dependent hypercortisolism (i.e., Cushing's disease), as ACTH and cortisol levels should rise in these patients following mifepristone administration, while ACTH and cortisol should not change following mifepristone administration in patients with ectopic ACTH or primary adrenal disease (i.e., Cushing's syndrome). To test this hypothesis, patients with either Cushing's Disease or Cushing's Syndrome were administered mifepristone and monitored under the following conditions. Data are presented relating to ACTH and cortisol responses in patients with Cushing's disease following transphenoidal surgery (n=18) (i.e., surgery in which surgical instruments are inserted into part of the brain by going through the nose and the sphenoid bone (a butterfly-shaped bone at the base of the skull) in order to remove tumors of the pituitary gland), patients with Cushing's disease following transphenoidal surgery and pituitary radiation therapy (n=23), and patients with Cushing's syndrome secondary to ectopic ACTH secretion (n=4). All patients received mifepristone 300 mg orally per day. ACTH and cortisol were measured as close to 8 AM as possible using a centralized laboratory (Quest Diagnostics, Collegeville, Pa.) 14 days after commencing mifepristone therapy.
# [3] = tested on: patients with Cushing's disease; test: Case One: ACTH and cortisol response to mifepristone in Cushing's disease patients after transphenoidal surgery, with or without radiation therapy
# Description: as §1
# [4] = tested on: person with adrenal insufficiency; test: Case Three: ACTH and cortisol before and after a single mifepristone dose in adrenal insufficiency; settings: 8 AM on the day after a single 300 mg dose
# Description: ACTH and cortisol levels were low (ACTH<[…] and cortisol 2.4 micrograms/deciliter following exogenous ACTH administration). Based upon the finding of both low ACTH and cortisol, the cause of their adrenal insufficiency could be due to pituitary or to hypothalamic disease. […] ACTH and cortisol were measured at 8 AM on the day after they received a single dose of 300 mg mifepristone.
# [5] = Cushing's syndrome due to ectopic ACTH, Day 14 vs Day 0, NS
# [6] = Cushing's disease after surgery and radiation therapy, Day 14 vs Day 0, mifepristone 300 mg/day orally
# [7] = Cushing's disease, no radiation therapy, Day 14 vs Day 0, mifepristone 300 mg/day orally
structure (smiles),measurement,setting,value
CC#C[C@]1(O)CC[C@H]2[C@@H]3CCC4=CC(=O)CCC4=C3[C@@H](c3ccc(N(C)C)cc3)C[C@@]21C [mifepristone],cortisol Post-mifepristone,[1]; pre-mifepristone 19.7,32.9 micrograms/deciliter
same,ACTH Post-mifepristone,[1]; pre-mifepristone 84,129 picograms/ml plasma
same,"ACTH, Fold change",[2]; [5],1.75 ± .75
same,"cortisol, Fold change",[2]; [5],1.21 ± .79
same,change in ACTH or cortisol following mifepristone therapy,"[2]; patients with ectopic ACTH, mifepristone 300 mg/day, 14 days",substantially no significant change
same,"ACTH s/p RT, Fold change",[3]; [6],1.40 ± .45
same,"cortisol s/p RT, Fold change",[3]; [6],1.24 ± .23
same,"rise in ACTH and cortisol, no radiation therapy versus radiation therapy","[3]; Cushing's disease no RT compared with s/p RT, mifepristone 300 mg/day, 14 days",significantly greater rise
same,"ACTH no RT, Fold change",[3]; [7],2.13 ± .96
same,"cortisol no RT, Fold change",[3]; [7],1.56 ± .6
same,cortisol Post-mifepristone,[4]; pre-mifepristone 2.1,11.3 micrograms/deciliter
same,ACTH Post-mifepristone,[4]; pre-mifepristone <5,13 picograms/ml plasma
